# According to US9238653B2, “Antimalarial agents that are inhibitors of dihydroorotate dehydrogenase” (BOARD OF REGENTS, THE UNIVERSITY OF TEXAS SYSTEM, priority 2009, dated 2016):
# Where two headings read alike, the source gives them in different places.
# How the values were obtained:
# pfDHOD = pfDHOD (Plasmodium falciparum (isolate 3D7), UniProt Q08210); assay: DHOD enzyme inhibition, colorimetric DCIP reduction or direct orotic acid assay; format: biochemical
# Description: Reactions are initiated by addition of enzyme to a final concentration in the range of about 5 nM to about 50 nM while maintaining the temperature of a circulating water bath at 25° C.
# Assay solutions were prepared as discussed above, except that DCIP is not present and the solution is depleted of oxygen by the inclusion of an oxidase/reductase system, such as, 0.1 mg/ml of glucose oxidase, 0.02 mg/ml catalase and 50 mM glucose. The data obtained was fitted to equation 1, to determine the IC50 values of the representative compounds.
# P. falciparum 3D7 = assay: 3H-hypoxanthine uptake in P. falciparum-infected erythrocytes; format: cell-based, Plasmodium falciparum; conditions: read-out: EC50 P. falciparum 3D7
# [1] = Plasmodium falciparum, 3D7, Erythrocyte
# [2] = Plasmodium falciparum, 3D7, Erythrocyte, 3D7 strain
# pfDHOD, sequence (Q08210 24-569 limits assumed): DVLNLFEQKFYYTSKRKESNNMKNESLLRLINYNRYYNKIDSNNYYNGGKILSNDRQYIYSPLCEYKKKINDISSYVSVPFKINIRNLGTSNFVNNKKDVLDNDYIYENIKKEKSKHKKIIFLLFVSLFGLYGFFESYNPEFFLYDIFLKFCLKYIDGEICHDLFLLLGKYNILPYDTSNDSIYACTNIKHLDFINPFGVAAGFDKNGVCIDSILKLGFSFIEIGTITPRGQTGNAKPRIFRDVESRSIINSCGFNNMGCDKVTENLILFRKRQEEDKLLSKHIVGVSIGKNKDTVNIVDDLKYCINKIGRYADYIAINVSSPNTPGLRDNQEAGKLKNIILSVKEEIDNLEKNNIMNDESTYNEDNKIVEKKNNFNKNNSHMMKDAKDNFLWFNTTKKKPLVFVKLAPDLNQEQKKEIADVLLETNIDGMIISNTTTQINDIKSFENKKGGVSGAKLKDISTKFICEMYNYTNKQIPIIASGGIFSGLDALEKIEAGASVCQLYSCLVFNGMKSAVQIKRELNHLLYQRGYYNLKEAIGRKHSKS
Structure (SMILES),IC50 (pfDHOD),EC50 (P. falciparum 3D7; [2]),further results
Cc1cc(Nc2ccc(Cl)c(F)c2)n2ncnc2n1,,,melting point: 285 °C
Cc1cc(NC2Cc3ccc(Br)cc3C2)n2ncnc2n1 (centres unmarked),,,melting point: 164 °C
Cc1cc(Nc2ccc(C(F)(F)F)cc2)n2nc(C(F)(F)F)nc2n1,,,melting point: 124 to 126 °C
Cc1cc(Nc2ccc(S(F)(F)(F)(F)F)cc2)n2nc(C(F)(F)F)nc2n1,,,melting point: 178 to 180 °C
Cc1cc(NC2CCc3ccccc3C2)n2ncnc2n1 (centres unmarked),500 nM,,EC50 (P. falciparum 3D7; [1]): 1800 nM
Cc1cc(Nc2ccc(C(F)(F)F)cc2)n2ccnc2n1,77 nM,330 nM,
Cc1cc(NC2Cc3ccccc3C2)n2ncnc2n1,500 nM,2400 nM,
Cc1cc(Nc2ccc(Cl)cc2)n2nc(C(F)(F)F)nc2n1,90 nM,260 nM,
Cc1cc(C)cc(Nc2cc(C)nc3nc(C(F)(F)F)nn23)c1,220 nM,700 nM,
CC(C)c1ccc(Nc2c3c(nc4ncnn24)CCC3)cc1,250 nM,1800 nM,
Cc1cc(Nc2ccc(C(F)(F)F)cc2)n2nc(C(C)(F)F)nc2n1,38 nM,7 nM,
CCc1c(C)nc2ncnn2c1Nc1ccc(C(C)C)cc1,1660 nM,> 10000 nM,
CCc1c(C)nc2ncnn2c1Nc1ccc(OC(F)(F)F)cc1,,> 10000 nM,
Cc1cc(Nc2ccc(S(F)(F)(F)(F)F)cc2)n2nc(C(C)(F)F)nc2n1,,,EC50 (P. falciparum 3D7; [1]): 19 nM
Cc1cc(Nc2ccc3sccc3c2)n2ncnc2n1,90 nM,70 nM,
Cc1cc(Nc2ccc(C)c(Cl)c2)n2nc(C(F)(F)F)nc2n1,130 nM,800 nM,
Cc1cc(Nc2cc(F)c(C(F)(F)F)c(F)c2)n2ncnc2n1,190 nM,240 nM,
Cc1cc(Nc2ccc3c(c2)CCCC3)n2nc(C(F)(F)F)nc2n1,43 nM,,
COc1nc2nc(C)cc(Nc3cccc(Cl)c3)n2n1,,1000 nM,
Cc1cc(NC2Cc3cc(Cl)c(Cl)cc3C2)n2ncnc2n1,1200 nM,> 5000 nM,
Cc1cc(Nc2ccc(S(F)(F)(F)(F)F)cc2)n2ccnc2n1,,600 nM,

Structure (SMILES),IC50 (pfDHOD),EC50 (P. falciparum 3D7; [2]),further results
Cc1cc(NC2Cc3cc(F)c(F)cc3C2)n2ncnc2n1,1000 nM,1500 nM,
Cc1cc(Nc2ccc(SC(F)(F)F)cc2)n2ncnc2n1,610 nM,> 4000 nM,
Cc1cc(NC2Cc3ccc(F)cc3C2)n2ncnc2n1 (centres unmarked),610 nM,,EC50 (P. falciparum 3D7; [1]): 1300 nM
COc1cc2c(cc1OC)CC(Nc1cc(C)nc3ncnn13)C2,4620 nM,,EC50 (P. falciparum 3D7; [1]): 7700 nM
Cc1cc(Nc2ccc(F)cc2)n2nc(C(F)(F)F)nc2n1,740 nM,8500 nM,
Brc1ccc(Nc2c3c(nc4ncnn24)CCCC3)cc1,2120 nM,9900 nM,
Cc1cc(Nc2ccc(C(C)(C)C)c(F)c2)n2ncnc2n1,60 nM,100 nM,
Cc1cc(NC2CCc3cc(F)ccc3C2)n2ncnc2n1 (centres unmarked),630 nM,,EC50 (P. falciparum 3D7; [1]): 2500 nM
Cc1cc(Nc2ccc(C(F)(F)F)c(C(F)(F)F)c2)n2ncnc2n1,540 nM,,EC50 (P. falciparum 3D7; [1]): 2300 nM
Cc1cc(Nc2ccc(S(F)(F)(F)(F)F)cc2)n2nc(C)nc2n1,510 nM,420 nM,
Cc1cc(Nc2ccc(Cl)c(F)c2)n2nc(C(F)(F)F)nc2n1,520 nM,250 nM,
Cc1ccc(Nc2c3c(nc4ncnn24)CCC3)cc1F,,,EC50 (P. falciparum 3D7; [1]): 8300 nM
FC(F)(F)c1ccc(Nc2cc(C(F)(F)F)nc3ncnn23)cc1,1700 nM,> 10000 nM,
Cc1cc(NC2CCc3cc(Cl)ccc3C2)n2ncnc2n1 (centres unmarked),670 nM,10000 nM,
Cc1cc(NC2CCc3ccccc3C2)n2nc(C(F)(F)F)nc2n1 (centres unmarked),1200 nM,,
Cc1cc(Nc2ccc(C(F)(F)F)c(F)c2)n2nc(C(C)(F)F)nc2n1,35 nM,9.3 nM,
Cc1cc(Nc2cc(F)c(C(F)(F)F)c(F)c2)n2nc(C(C)(F)F)nc2n1,20 nM,30 nM,
COc1nc2nc(C)cc(Nc3ccc(S(F)(F)(F)(F)F)cc3)n2n1,42 nM,64 nM,
Cc1cc(Nc2ccc(C(F)(F)F)cc2)n2nc(C(C)C)nc2n1,110 nM,,EC50 (P. falciparum 3D7; [1]): 98 nM
CCC(F)(F)c1nc2nc(C)cc(Nc3ccc(C(F)(F)F)cc3)n2n1,190 nM,,EC50 (P. falciparum 3D7; [1]): 45 nM
Cc1cc(Nc2ccc(C(F)(F)F)cc2)n2nc(C3CC3)nc2n1,140 nM,,EC50 (P. falciparum 3D7; [1]): 150 nM

Structure (SMILES),IC50 (pfDHOD),EC50 (P. falciparum 3D7; [2]),further results
Cc1cc(Nc2ccc(S(F)(F)(F)(F)F)cc2)n2ncnc2n1,160 nM,18000 nM,
Cc1cc(Nc2cc(F)c(C(F)(F)F)c(F)c2)n2nc(C(F)(F)F)nc2n1,22 nM,4.8 nM,
CCc1nc2nc(C)cc(Nc3ccc(S(F)(F)(F)(F)F)cc3)n2n1,,100 nM,
Cc1cc(Nc2ccc(S(F)(F)(F)(F)F)cc2)n2nc(C(C)C)nc2n1,,,EC50 (P. falciparum 3D7; [1]): 420 nM
CCC(F)(F)c1nc2nc(C)cc(Nc3ccc(S(F)(F)(F)(F)F)cc3)n2n1,,,EC50 (P. falciparum 3D7; [1]): 550 nM
Cc1cc(Nc2ccc(S(F)(F)(F)(F)F)cc2)n2nc(C3CC3)nc2n1,,500 nM,
Cc1cc(Nc2ccc(Cl)cc2)n2nc(C(C)(F)F)nc2n1,28 nM,33 nM,
"Cc1cc(Nc2ccc(CC(F)(F)F)cc2)n2ncnc2n1 [Example 25, 5-Methyl-N-(4-(2,2,2-trifluoroethyl)phenyl)-[1,2,4]triazolo[1,5-a]pyrimidin-7-amine]",,,melting point: 204 °C
"Cc1cc(Nc2ccc(C(F)(F)F)c(F)c2)n2ccnc2n1 [Example 51, N-(3-fluoro-4-(trifluoromethyl)phenyl)-7-methylimidazo[1,2-a]pyrimidin-5-amine]",,,melting point: 302 to 304 °C
"Cc1cc(Nc2ccc3c(c2)CCCC3)n2ccnc2n1 [Example 53, 7-Methyl-N-(5,6,7,8-tetrahydronaphthalen-2-yl)imidazo[1,2-a]pyrimidin-5-amine]",,,melting point: 264 to 266 °C
"Cc1cc(Nc2ccc3c(c2)CCC3)n2ccnc2n1 [Example 54, N-(2,3-dihydro-1H-inden-5-yl)-7-methylimidazo[1,2-a]pyrimidin-5-amine]",,,melting point: 255 to 257 °C
Cc1cc(Nc2ccc(C(F)(F)F)cc2)n2nc(C(F)(F)F)nc2n1 [drawing 329],35 nM,,EC50 (P. falciparum 3D7; [1]): 73 nM
Cc1cc(Nc2ccc(C(F)(F)F)c(F)c2)n2ccnc2n1 [drawing 333],140 nM,600 nM,
Cc1cc(Nc2ccc3c(c2)CCCC3)n2ncnc2n1 [drawing 335],100 nM,300 nM,
Cc1cc(Nc2ccc3c(c2)CCC3)n2ccnc2n1 [drawing 336],130 nM,600 nM,
Cc1cc(Nc2ccc(CC(F)(F)F)cc2)n2ncnc2n1 [drawing 337],2470 nM,,
Cc1cc(Nc2ccc(Cl)c(F)c2)n2ncnc2n1 [drawing 338],510 nM,,EC50 (P. falciparum 3D7; [1]): 3500 nM
Cc1cc(NC2Cc3ccc(Br)cc3C2)n2ncnc2n1 (centres unmarked) [drawing 343],990 nM,,EC50 (P. falciparum 3D7; [1]): 6600 nM
Cc1cc(Nc2ccc(S(F)(F)(F)(F)F)cc2)n2nc(C(F)(F)F)nc2n1 [drawing 344],130 nM,,EC50 (P. falciparum 3D7; [1]): 140 nM
Cc1cc(Nc2ccc3c(c2)CCCC3)n2ncnc2n1 [drawing 353],32 nM,,EC50 (P. falciparum 3D7; 3D7 strain): 200 nM
